Test results taken from ChEMBL document CHEMBL1201862, “PubChem BioAssay data set” (2004).
Activity calls are given as the source filed them.

Assays:
[1] = target: T1, RNA-binding protein pos-1 (Caenorhabditis elegans, UniProt G5EF15); experiment: disruptors of C. elegans POS-1 RNA interaction – biochemical, fluorescence polarization, dose response (AID 1964);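 note: purified POS-1 fused to maltose binding protein made in E. coli; potency of compounds blocking POS-1 binding to fluorescent RNA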
T1 sequence (G5EF15 whole entry): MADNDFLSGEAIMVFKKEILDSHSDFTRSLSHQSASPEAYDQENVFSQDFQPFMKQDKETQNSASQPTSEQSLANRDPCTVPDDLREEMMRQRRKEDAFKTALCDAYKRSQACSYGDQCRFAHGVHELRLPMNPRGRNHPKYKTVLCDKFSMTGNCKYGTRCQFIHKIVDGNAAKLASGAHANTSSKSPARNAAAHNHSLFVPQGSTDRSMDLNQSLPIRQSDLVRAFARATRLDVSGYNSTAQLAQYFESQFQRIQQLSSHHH

[2] = target: T2, Zinc finger protein mex-5 (Caenorhabditis elegans, UniProt Q9XUB2); experiment: potency of MEX-5 RNA-binding blockers – biochemical, C. elegans, fluorescence polarization, dose response (AID 1960)
T2 sequence (Q9XUB2 whole entry): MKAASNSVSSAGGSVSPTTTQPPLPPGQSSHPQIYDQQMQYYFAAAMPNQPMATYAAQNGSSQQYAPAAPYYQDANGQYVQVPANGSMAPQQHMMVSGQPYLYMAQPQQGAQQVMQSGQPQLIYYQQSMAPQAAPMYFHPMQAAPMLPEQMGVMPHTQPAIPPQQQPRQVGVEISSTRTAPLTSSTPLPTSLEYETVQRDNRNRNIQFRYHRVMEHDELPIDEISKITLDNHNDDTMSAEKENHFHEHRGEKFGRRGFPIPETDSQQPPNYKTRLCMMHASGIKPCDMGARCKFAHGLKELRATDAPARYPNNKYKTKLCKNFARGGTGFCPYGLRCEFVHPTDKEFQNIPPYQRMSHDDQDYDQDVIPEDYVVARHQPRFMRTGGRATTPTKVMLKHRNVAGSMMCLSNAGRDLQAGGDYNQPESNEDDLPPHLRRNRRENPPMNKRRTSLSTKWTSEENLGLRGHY

[3] = target: Cytochrome P450 2C9 (Homo sapiens, UniProt P11712)
[4] = reduction of Shn3 3'UTR-driven luciferase in osteoblasts – cell-based, Clone20 osteoblasts, firefly luciferase, cherry-picked, dose response (AID 624132); type: functional;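 note: firefly luciferase luminescence from reporter carrying the Shn3 3'UTR in osteoblasts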
[5] = non-specific 3'UTR reporter inhibition in Clone20-Shn3RL – cell-based, Renilla luciferase, cherry-picked, counter-screen for Shn3 inhibitor project, dose response (AID 624133); type: functional
[6] = target: Cytochrome P450 3A4 (Homo sapiens, UniProt P08684);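 note: CYP3A4 tested as one member of a cytochrome P450 panel screen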
[7] = loss of viability in HepG2 cells – cell-based, CellTiter-Glo, cherry-picked, cytotoxicity control for Shn3 inhibitor project, dose response (AID 624134); type: functional
[8] = NIH-3T3 fibroblast cytotoxicity, dose response, cytotoxicity control, cell-based, fluorescence, Alamar Blue, secondary assay (AID 2327); type: functional;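 note: NIH-3T3 mouse fibroblasts cultured with fluconazole at 8 µg/mL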
[9] = fluconazole-exposed Candida albicans growth modulators – fluorescence, retest, confirmation (AID 2467); type: functional, cell-based
[10] = microbe, parasite or virus in culture; type: functional; conditions: Mycobacterium tuberculosis
[11] = target: T3, Streptokinase A (Streptococcus pyogenes serotype M1, UniProt P10520); experiment: viability-normalized secreted streptokinase activity reduction – plasminogen activation absorbance, OD405, dose response (AID 1914); type: functional, Streptococcus pyogenes M1 GAS;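 note: secreted streptokinase activity via plasminogen activation per viability signal from cell pellet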
T3 sequence (P10520 whole entry): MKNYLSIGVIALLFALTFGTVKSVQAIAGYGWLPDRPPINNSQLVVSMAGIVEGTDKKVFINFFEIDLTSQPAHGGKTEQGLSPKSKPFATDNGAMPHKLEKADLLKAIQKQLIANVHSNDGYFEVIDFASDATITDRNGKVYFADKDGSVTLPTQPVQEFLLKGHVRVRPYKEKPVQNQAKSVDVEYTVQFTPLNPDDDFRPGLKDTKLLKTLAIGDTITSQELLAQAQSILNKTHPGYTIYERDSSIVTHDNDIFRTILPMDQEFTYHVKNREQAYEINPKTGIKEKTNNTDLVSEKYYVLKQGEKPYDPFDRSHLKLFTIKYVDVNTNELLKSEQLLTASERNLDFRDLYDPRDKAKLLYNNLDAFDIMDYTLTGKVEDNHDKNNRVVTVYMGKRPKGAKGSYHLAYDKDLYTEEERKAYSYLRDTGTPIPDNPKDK

[12] = test system: Streptococcus sp. 'group A'; experiment: Streptococcus pyogenes SK(-)GAS viability under kanamycin – luminescence, BacTiterGlo, confirmation, counter-screen for streptokinase expression inhibitor project, dose response (AID 1900); type: functional, organism-based
[13] = test system: Streptococcus; experiment: GAS UMAA2166 growth inhibition – luminescence, BacTiterGlo, counter-screen for streptokinase expression inhibitor project, dose response (AID 1915); type: functional, organism-based;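 note: potency for reduction of bacterial viability or growth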
[14] = target: Cytochrome P450 2C19 (Homo sapiens, UniProt P33261); experiment: Cytochrome panel assay with activity outcomes. Panel member name: p450-cyp2c19 Compounds with AC50 equal or less than 10 uM are considered active; type: functional
[15] = target: T4, Cytochrome P450 1A2 (Homo sapiens, UniProt P05177);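 note: PubChem cytochrome P450 panel assay, CYP1A2 panel member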
T4 sequence (P05177 whole entry): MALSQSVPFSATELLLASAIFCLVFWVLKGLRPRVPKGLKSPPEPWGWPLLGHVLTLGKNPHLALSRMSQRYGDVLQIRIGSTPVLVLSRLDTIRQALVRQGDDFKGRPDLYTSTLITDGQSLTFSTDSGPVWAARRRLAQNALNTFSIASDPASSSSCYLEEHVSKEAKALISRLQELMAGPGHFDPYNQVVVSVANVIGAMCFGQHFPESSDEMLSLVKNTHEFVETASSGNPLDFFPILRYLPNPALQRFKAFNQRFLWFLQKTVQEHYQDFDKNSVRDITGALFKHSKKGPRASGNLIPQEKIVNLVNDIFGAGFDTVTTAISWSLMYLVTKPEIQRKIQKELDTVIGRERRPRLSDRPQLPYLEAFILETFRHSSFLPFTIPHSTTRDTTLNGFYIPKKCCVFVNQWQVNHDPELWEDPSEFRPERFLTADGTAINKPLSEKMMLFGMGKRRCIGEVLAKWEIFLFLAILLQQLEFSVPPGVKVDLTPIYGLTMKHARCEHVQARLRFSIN

[16] = target: T5, Protein skinhead-1 (Caenorhabditis elegans, UniProt P34707); type: functional
T5 sequence (P34707 whole entry): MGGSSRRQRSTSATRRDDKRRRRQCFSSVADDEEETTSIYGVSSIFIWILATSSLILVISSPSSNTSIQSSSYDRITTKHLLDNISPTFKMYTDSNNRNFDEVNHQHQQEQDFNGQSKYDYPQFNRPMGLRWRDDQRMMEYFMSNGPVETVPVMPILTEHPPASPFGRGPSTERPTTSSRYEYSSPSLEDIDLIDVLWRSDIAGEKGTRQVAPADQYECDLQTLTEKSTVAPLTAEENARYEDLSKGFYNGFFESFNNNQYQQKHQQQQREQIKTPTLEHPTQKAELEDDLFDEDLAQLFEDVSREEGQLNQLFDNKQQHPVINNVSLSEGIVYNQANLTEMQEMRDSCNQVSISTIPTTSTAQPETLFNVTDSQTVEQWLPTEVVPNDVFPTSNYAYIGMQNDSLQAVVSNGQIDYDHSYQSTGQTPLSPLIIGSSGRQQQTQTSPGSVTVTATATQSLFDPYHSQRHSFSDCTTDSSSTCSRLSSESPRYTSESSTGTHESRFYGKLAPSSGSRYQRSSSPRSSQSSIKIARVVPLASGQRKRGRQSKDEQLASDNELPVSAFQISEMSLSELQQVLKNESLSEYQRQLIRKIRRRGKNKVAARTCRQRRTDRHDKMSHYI

[17] = Luminescence Cell-Based Dose Retest to Confirm Inhibitors of Cancer Stem Cells. [Related pubchem assays (depositor defined):AID2717, AID2721]; type: functional; conditions: Homo sapiens
[18] = test system: INS1; experiment: INS-1E survival protection against cytokine death – cell-based, luminescence, retest, dose response (AID 449756); type: functional; conditions: Rattus norvegicus;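 note: cell death triggered by IL-1 beta plus TNF-alpha plus IFN-gamma mixture; protective hits raise ATP signal compared with cytokine alone wells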
[19] = test system: H4; experiment: Luminescence Cell-Based Dose Response HTS to Identify Activators of 5'UTR Stem-Loop Driven Prion Protein mRNA Translation in H4 Neuroglioblastoma Cells. [Related pubchem assays: 1829 (Project Summary), 1814 (Primary HTS)]; type: functional; conditions: Homo sapiens
[20] = Luminescence Cell-Based Dose Response HTS to Identify Activators of Luciferase Translation or Activity in H4 […] Cells. [Related pubchem assays: 1829 (Project Summary), 1814 (Primary HTS)]; type: functional

Sequence of Cytochrome P450 2C9 (P11712 whole entry): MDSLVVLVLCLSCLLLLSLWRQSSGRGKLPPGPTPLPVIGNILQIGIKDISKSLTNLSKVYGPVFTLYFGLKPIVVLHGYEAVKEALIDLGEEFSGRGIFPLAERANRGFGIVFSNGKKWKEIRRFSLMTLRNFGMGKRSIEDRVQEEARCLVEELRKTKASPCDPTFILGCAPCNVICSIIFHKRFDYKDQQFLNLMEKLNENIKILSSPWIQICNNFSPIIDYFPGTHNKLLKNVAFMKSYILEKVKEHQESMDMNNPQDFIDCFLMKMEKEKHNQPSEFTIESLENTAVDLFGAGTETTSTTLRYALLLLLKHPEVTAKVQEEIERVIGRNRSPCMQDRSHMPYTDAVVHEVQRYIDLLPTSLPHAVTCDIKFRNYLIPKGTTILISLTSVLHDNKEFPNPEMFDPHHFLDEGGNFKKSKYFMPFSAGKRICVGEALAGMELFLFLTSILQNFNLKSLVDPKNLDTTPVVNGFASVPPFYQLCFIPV
Sequence of Cytochrome P450 2C19 (P33261 whole entry): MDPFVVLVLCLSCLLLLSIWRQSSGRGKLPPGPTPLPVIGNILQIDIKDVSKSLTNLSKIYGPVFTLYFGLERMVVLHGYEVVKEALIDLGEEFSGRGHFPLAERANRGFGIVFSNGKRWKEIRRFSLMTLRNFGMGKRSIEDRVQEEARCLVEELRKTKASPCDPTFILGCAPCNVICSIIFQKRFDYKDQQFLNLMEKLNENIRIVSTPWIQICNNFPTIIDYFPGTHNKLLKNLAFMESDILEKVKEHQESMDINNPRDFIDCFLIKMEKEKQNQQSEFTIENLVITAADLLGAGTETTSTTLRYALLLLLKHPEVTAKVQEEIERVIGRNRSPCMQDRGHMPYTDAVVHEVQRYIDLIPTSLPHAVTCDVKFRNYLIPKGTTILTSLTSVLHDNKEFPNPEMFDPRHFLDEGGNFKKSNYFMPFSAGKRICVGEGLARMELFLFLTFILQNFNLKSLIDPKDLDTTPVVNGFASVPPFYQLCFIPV
Sequence of Cytochrome P450 3A4 (P08684 whole entry): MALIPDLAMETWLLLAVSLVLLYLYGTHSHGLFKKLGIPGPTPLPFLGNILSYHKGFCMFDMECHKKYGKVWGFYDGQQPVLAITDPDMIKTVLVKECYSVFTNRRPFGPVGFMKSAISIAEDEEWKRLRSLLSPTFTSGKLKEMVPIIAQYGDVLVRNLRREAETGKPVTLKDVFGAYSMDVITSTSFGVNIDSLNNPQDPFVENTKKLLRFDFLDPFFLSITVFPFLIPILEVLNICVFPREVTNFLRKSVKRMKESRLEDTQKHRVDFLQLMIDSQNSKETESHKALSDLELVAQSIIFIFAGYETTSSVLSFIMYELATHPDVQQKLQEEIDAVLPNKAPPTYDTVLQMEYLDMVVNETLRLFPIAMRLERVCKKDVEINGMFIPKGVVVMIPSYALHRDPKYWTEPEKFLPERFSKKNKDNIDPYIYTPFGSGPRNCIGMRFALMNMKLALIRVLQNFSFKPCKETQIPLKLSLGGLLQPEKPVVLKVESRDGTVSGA

For NS(=O)(=O)c1ccc(NC(S)=NNC(=O)CCC(=O)Nc2ccccc2Cl)cc1, the EC50 [1] was 13 µM (inconclusive) and the EC50 [2] was 12.2 µM (active).

In the case of CCN(CC)C(=O)C1CCN(S(=O)(=O)c2ccc3oc4ccccc4c3c2)CC1, the AC50 [3] is reported as “inconclusive”, the AC50 [4] is reported as 3.96 µM (active) and the AC50 [5] is reported as 10.1 µM (active). For the same molecule, the AC50 [6] was 3.98 µM (inconclusive) and the AC50 [7] was > 70 µM (inactive).

For CO/N=C/C(=C\Nc1ccc(Cl)cc1Cl)c1ncc(C(F)(F)F)cc1Cl, the EC50 [8] was > 160 µM (inconclusive).

In the case of CC1(C)CC(=O)C=C(Nc2ccc([N+](=O)[O-])cc2)C1, the EC50 [9] is reported as 2.93 µM (active) and the EC50 [8] is reported as > 160 µM (inactive).

For O=C(CSc1nc2cc(Br)c[nH]c-2n1)Nc1ccc2c(c1)OCO2, the CC50 [10] was > 40 µM (active).

With O=C(NNC(=O)c1cnccn1)c1ccc(Cl)cc1 the EC50 [1] was 95.9 µM (active) and the EC50 [2] was 12.4 µM (active).

With Cc1nnc(NC(=O)c2ccc(S(=O)(=O)N(C)Cc3ccccc3)cc2)o1 the EC50 [11] was > 150 µM (not active), the EC50 [12] was 4.98 µM (active) and the EC50 [9] was 2.21 µM (active). The EC50 [13] was 17 µM (active) and the EC50 [8] was 21.7 µM (active).

For CCOc1ccc(/C=N/Nc2nc(N3CCCC3)nc(N3CCCC3)n2)cc1OC, the AC50 [3] was “inconclusive”, the AC50 ([14]; read-out: AC50) was 39.8 µM (inconclusive) and the AC50 [15] was 39.8 µM (inconclusive).

For Cc1ccc(C2=NN(S(C)(=O)=O)C(c3ccc4c(c3)OCO4)C2)cc1 (stereo unspecified), the IC50 [16] was > 100 µM (inactive).

With CCCNC(=O)COC(=O)C1CCN(S(=O)(=O)c2ccc3c(c2)OCCO3)CC1 the IC50 [16] was > 100 µM (inactive).

In the case of CN(C)c1ccc(-c2cc(O)c3ncccc3c2)cc1, the AC50 [17] is reported as 7.11 µM (active), the AC50 [18] is reported as 5.16 µM (active) and the CC50 [10] is reported as 23.2 µM (active).

With CCN=C(S)N1CCC(NC(=O)C2CCCCC2)CC1 the AC50 [3] was “inconclusive” and the AC50 [14] was “inconclusive”.

For c1csc(CSc2nc3ccccc3s2)c1, the EC50 [19] was 36.9 µM (active), the IC50 [16] was 27.5 µM (active) and the EC50 [20] was 1.12 µM (active).

For Cc1ccc(NC(=O)/C(C#N)=C/c2ccc(C)s2)c(C)c1, the EC50 [1] was 64.2 µM (inconclusive) and the EC50 [2] was 9.25 µM (active).

In the case of O=C(CCN1C(=O)/C(=C\C=C\c2ccccc2)SC1=S)Nc1ccc(C(=O)O)cc1, the EC50 [1] is reported as > 300 µM (not active) and the EC50 [2] is reported as 38.7 µM (active).

For COc1cccc(C(=O)NCC(=O)NNc2ncnc(N)c2[N+](=O)[O-])c1, the EC50 [1] was > 300 µM (inconclusive) and the EC50 [2] was < 0.06 µM (inconclusive).

In the case of CSC(=Nc1ccc(F)c(Cl)c1)NS(=O)(=O)c1cccs1, the EC50 [9] is reported as 0.805 µM (active) and the EC50 [8] is reported as > 150 µM (inactive).

With O=C(NCc1ccccn1)C1CC(c2ccc(Cl)c(Cl)c2)=NO1 (stereo unspecified) the AC50 [3] was “inconclusive” and the AC50 [15] was 4.47 µM (inconclusive).
